Assay results as given in patent US20240269298A1, “PHOSPHONYL DERIVATIVE, AND COMPOSITION AND PHARMACEUTICAL APPLICATION THEREOF” (XIZANG HAISCO PHARMACEUTICAL CO., LTD., priority 2021, published 2024).
Like-named read-outs stand apart in the source and are kept apart here.

Experiments:
Format in all cases: cell-based
[1] = system: A431 (EGFR-WT) cells; test: Inhibitory activity on proliferation of A431 (EGFR-WT) cells (CTG, 72 h); conditions: Homo sapiens, A-431
Outline: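 IC50 values come from S-shaped dose-survival fits of CTG signal expressed as % of vehicle. Compound exposure lasted 72 h at 37 °C with 0.1% DMSO; seeding was 3000 A431 cells/well in DMEM+10% FBS and 1000 NCI-H1975 cells/well in RPMI1640+10% FBS.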

[2] = system: NCI-H1975 EGFR-L858R-T790M-C797S cells; test: Inhibitory activity on proliferation of NCI-H1975 EGFR-L858R-T790M-C797S cells (CellTiter-Glo, 72 h); conditions: Homo sapiens
Outline: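 Cells (1500/well) exposed to graded compound concentrations for 72 h at 37 °C in hygromycin-free RPMI1640 + 10% FBS, 0.1% DMSO vehicle. Viability by CellTiter-Glo luminescence relative to vehicle; IC50 from nonlinear sigmoidal dose-survival fit.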

[3] = biological target: T1, EGFR protein in NCI-H1975 EGFR-L858R-T790M-C797S cells (Homo sapiens, UniProt P00533, C797S/L858R/T790M); test: Degradation activity on EGFR protein in NCI-H1975 EGFR-L858R-T790M-C797S cells, Method II (western blot, 48 h); conditions: 48 h incubation, EGFR protein relative to DMSO control
T1 construct: expressed in transfected cells; host or cells: NCI-H1975 EGFR-L858R-T790M-C797S (kept under hygromycin selection)
Protocol: Protein sample preparation: NCI-H1975 EGFR-L858R-T790M-C797S cells were cultured in an incubator at 37° C. with 5% CO2, and the culture medium was RPMI1640+10% FBS+100 μg/mL hygromycin. The cells in the logarithmic phase were collected, and the cell suspension was adjusted to an appropriate concentration with a hygromycin-free culture medium, plated on a 6-well plate at a density of 350000 cells/well and a volume of 2 mL, and cultured overnight in an incubator at 37° C. with 5% CO2. The next day, the compounds at different concentrations were added. DMSO control wells were provided, wherein the concentration of DMSO in all wells was 0.1%. The 6-well plate was cultured in an incubator at 37° C. with 5% CO2 for 48 h, and then 30 μL of RIPA lysates (Beyotime, Cat. P0013B) containing protease inhibitors (Beyotime, Cat. P0013B) were added. The mixtures were lysed on ice for 30 min. Centrifugation was carried out at 13000 rpm/min at 4° C. for 20 minutes to collect protein supernatant samples, and protein quantification was performed by the BCA method. Western Blot detection samples were prepared.
Western blot detection: 20 μg of protein samples were added to each well, subjected to polyacrylamide gel electrophoresis and transferred to a membrane, and then diluted anti-EGFR (CST, Cat. 4267S) and […] (Kangchen, Cat. KC-5G4) antibodies were added and incubated overnight at 4° C. After washing the membrane, diluted goat anti-rabbit (Licor, Cat. 926-32211) and goat anti-mouse (Licor, Cat. 926-68070) antibodies were added and incubated in the dark for 45 min. Scanning and detection at wavelengths of 700 nm and 800 nm were performed with a far-infrared imaging system (Odyssey).
According to formula (3), the expression level of EGFR protein in the cells relative to the DMSO control group was calculated after incubation with different concentrations of compounds. wherein EGFRcompound was the fluorescence value of EGFR protein after incubation with compounds, and EGFRvehicle was the fluorescence value of EGFR protein in the DMSO control group. Using the Origin 9.2 software, the drug concentration DC50 values when the expression level of EGFR protein was 50% relative to the DMSO control group were calculated.

T1 sequence (P00533 25-1210 T790M/C797S/L858R): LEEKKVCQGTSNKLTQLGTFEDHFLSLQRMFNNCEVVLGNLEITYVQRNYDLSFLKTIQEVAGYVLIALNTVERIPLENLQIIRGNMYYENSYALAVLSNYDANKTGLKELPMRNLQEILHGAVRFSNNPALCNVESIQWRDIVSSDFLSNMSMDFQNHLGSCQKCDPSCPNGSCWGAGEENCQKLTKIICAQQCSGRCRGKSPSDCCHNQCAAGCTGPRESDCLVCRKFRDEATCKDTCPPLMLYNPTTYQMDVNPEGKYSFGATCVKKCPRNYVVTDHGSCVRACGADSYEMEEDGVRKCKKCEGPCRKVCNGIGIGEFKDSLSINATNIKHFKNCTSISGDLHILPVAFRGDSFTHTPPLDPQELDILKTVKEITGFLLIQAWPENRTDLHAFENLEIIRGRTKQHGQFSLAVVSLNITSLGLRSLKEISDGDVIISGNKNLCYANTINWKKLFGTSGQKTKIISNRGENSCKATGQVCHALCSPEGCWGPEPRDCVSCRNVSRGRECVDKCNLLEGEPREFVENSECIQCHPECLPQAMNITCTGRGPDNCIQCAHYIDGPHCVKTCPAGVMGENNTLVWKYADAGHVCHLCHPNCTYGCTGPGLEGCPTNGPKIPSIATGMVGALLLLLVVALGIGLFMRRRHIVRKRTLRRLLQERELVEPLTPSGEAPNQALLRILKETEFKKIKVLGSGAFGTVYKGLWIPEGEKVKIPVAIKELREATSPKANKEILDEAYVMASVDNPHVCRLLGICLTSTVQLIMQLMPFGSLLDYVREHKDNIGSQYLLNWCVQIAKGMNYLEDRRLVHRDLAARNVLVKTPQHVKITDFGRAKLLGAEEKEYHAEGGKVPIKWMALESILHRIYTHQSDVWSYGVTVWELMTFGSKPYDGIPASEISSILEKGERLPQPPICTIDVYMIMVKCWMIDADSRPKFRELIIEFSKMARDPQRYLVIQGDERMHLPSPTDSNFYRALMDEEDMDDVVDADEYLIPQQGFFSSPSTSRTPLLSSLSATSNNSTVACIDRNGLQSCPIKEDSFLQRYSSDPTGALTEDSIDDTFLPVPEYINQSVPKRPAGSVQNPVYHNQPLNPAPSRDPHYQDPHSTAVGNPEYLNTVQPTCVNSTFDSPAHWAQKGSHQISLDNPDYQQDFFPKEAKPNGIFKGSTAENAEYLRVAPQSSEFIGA

IC50 [1]	IC50 ([2]; read-out: IC50 (class symbol))	IC50 ([2]; read-out: IC50 (value))	DC50 [3]	SMILES
≥ 10 µM	< 0.2 µM	0.112 µM	< 0.1 µM	COc1cc(N2CCC(CN3CCN(c4ccc5c(c4)C(=O)N(C4CCC(=O)NC4=O)C5=O)CC3)CC2)c(-c2cnn(C)c2)cc1Nc1ncc(Br)c(Nc2ccc(C3CC3)cc2P(C)(C)=O)n1 (centres unmarked) [Compound 106, 5-(4-((1-(4-((5-bromo-4-((4-cyclopropyl-2-(dimethylphosphoryl)phenyl)amino)pyrimidin-2-yl)amino)-5-methoxy-2-(1-methyl-1H-pyrazol-4-yl)phenyl)piperidin-4-yl)methyl)piperazin-1-yl)-2-(2,6-dioxopiperidin-3-yl)isoindoline-1,3-dione]
≥ 10 µM	< 0.2 µM	0.045 µM	< 0.1 µM	COc1cc(N2CCC(CN3CCN(c4ccc5c(c4)C(=O)N(C4CCC(=O)NC4=O)C5=O)CC3)CC2)c(-c2cnn(C)c2)cc1Nc1ncc(Cl)c(Nc2ccc(C3CC3)cc2P(C)(C)=O)n1 (centres unmarked) [Compound 107, 5-(4-((1-(4-((5-chloro-4-((4-cyclopropyl-2-(dimethylphosphoryl)phenyl)amino)pyrimidin-2-yl)amino)-5-methoxy-2-(1-methyl-1H-pyrazol-4-yl)phenyl)piperidin-4-yl)methyl)piperazin-1-yl)-2-(2,6-dioxopiperidin-3-yl)isoindoline-1,3-dione]
